Source: article PMC4335062, “Data-Driven Prediction and Design of bZIP Coiled-Coil Interactions” (PLoS Computational Biology, 2015)
Read-outs that look alike come from different tables or passages of the source. Where no end group is shown, it is not given here.

Experiments:
Test in all cases: Direct-binding FRET assay
ATF2 = target: T1, ATF2 (Homo sapiens, UniProt P15336); conditions: read-out: Kd
T1 construct: made in house
T1 sequence (P15336 352-415 limits assumed): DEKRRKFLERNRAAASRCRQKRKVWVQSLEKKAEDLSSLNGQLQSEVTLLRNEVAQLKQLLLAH
Description: (§1) The direct binding assay was performed manually in 384-well plates and is similar to a previously described assay. Wells were filled with 20 μL of 1 mM TCEP-HCl. A 4 μM stock of acceptor protein was made fresh in 1 mM TCEP-HCl, and 20 μL was titrated in 2-fold dilutions over the wells. […] The direct-binding FRET data were fit as previously described. Briefly, the Kd of the designed peptide homodimer was experimentally determined and used with previously determined target homodimer Kd values to determine the heterodimer Kd. The homodimer Kd values used for the human bZIPs were from; experiments done by […] et al. used the same protein constructs for the human bZIP proteins, the same buffer conditions, and the same assay. The fitting used a system of ordinary differential equations to describe the concentrations of homo and heterodimers formed by the donor (D) and acceptor (A) as a function of the heterodimer Kd. MATLAB was used to simulate the binding experiment for different Kd values, and the value that gave the best agreement between simulation and experiment was assigned. A minimum 15% change in the donor fluorescence upon titrating the acceptor peptide from 0 to 1000 nM was required for a fit to be attempted. If this minimum was not met, the interaction was classified as “NS” for no signal change. […] These interactions were marked “AS” to indicate anomalous signal. We attributed this to interactions between the peptides, the dyes and the walls of the assay plates at low concentrations. These curves could not be fit, given their unusual shapes at low concentrations of acceptor. For such curves, we removed the first five points and re-fit the data. […] One example of this is increasing concentrations of acceptor causing an increase in donor fluorescence.

ATF5 = target: T2, ATF5 (Homo sapiens, UniProt Q9Y2D1); conditions: read-out: Kd
T2 construct: made in house
T2 sequence (Q9Y2D1 208-271 limits assumed): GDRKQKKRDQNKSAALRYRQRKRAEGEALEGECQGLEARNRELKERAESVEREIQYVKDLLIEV
Description: as §1

BATF2 = target: T3, BATF2 (Homo sapiens, UniProt Q8N1L9); conditions: read-out: Kd
T3 construct: made in house
T3 sequence (Q8N1L9 17-80 limits assumed): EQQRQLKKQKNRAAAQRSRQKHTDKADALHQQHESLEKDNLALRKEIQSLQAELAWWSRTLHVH
Description: as §1

CREB3 = target: T4, CREB3 (Homo sapiens, UniProt O43889); conditions: mean or single, read-out: Kd
T4 construct: made in house
T4 sequence (O43889 150-213 limits assumed): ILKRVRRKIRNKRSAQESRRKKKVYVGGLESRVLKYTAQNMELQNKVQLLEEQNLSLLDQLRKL
Description: as §1

CREB3L3 = target: T5, CREB3L3 (Homo sapiens, UniProt Q68CJ9); conditions: read-out: Kd
T5 construct: made in house
T5 sequence (Q68CJ9 243-306 limits assumed): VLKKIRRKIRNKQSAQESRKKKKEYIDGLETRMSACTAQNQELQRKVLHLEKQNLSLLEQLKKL
Description: as §1

CREBZF = target: T6, CREBZF (Homo sapiens, UniProt Q9NS37); conditions: read-out: Kd
T6 construct: made in house
T6 sequence (Q9NS37 204-267 limits assumed): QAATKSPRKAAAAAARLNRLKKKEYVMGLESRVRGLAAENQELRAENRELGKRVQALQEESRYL
Description: as §1

DBP = target: T7, DBP (Homo sapiens, UniProt Q10586); conditions: read-out: Kd
T7 construct: made in house
T7 sequence (Q10586 255-318 limits assumed): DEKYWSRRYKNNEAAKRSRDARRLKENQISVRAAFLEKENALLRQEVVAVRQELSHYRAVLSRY
Description: as §1

HLF = target: T8, HLF (Homo sapiens, UniProt Q16534); conditions: read-out: Kd
T8 construct: made in house
T8 sequence (Q16534 225-288 limits assumed): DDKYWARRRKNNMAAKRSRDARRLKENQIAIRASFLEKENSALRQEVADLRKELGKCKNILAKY
Description: as §1

NFE2L2 = target: T9, NFE2L2 (Homo sapiens, UniProt Q16236); conditions: read-out: Kd
T9 construct: made in house
T9 sequence (Q16236 497-560 limits assumed): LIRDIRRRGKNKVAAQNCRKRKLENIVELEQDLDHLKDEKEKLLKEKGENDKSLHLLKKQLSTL
Description: as §1

NFIL3 = target: T10, NFIL3 (Homo sapiens, UniProt Q16649); conditions: read-out: Kd
T10 construct: made in house
T10 sequence (Q16649 73-136 limits assumed): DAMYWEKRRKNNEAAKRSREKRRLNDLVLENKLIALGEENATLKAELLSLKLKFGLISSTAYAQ
Description: as §1

[1] = 4°C, C-terminal fluorescein design as donor, TAMRA target titrated
[2] = 4°C, N-terminal rhodamine design, mean or single
[3] = 23°C, C-terminal fluorescein design as donor, TAMRA target titrated
[4] = 23°C, C-terminal rhodamine design, repeat 1
[5] = 23°C, N-terminal rhodamine design, mean or single
[6] = 37°C, C-terminal fluorescein design as donor, TAMRA target titrated
[7] = 37°C, C-terminal rhodamine design, repeat 1
[8] = 37°C, N-terminal rhodamine design, mean or single
[9] = 4°C, C-terminal rhodamine design, mean or single
[10] = 23°C, C-terminal rhodamine design, mean or single
[11] = 23°C, C-terminal rhodamine design, repeat 2
[12] = 23°C, C-terminal rhodamine design, repeat 3
[13] = 37°C, C-terminal rhodamine design, mean or single
[14] = 37°C, C-terminal rhodamine design, repeat 2
[15] = 37°C, C-terminal rhodamine design, repeat 3

Kd (ATF2; [1]): > 5000 nM | Kd (ATF2; 4°C, C-terminal rhodamine design, repeat 1): > 5000 nM | Kd (ATF2; [2]): > 1000 nM | Kd (ATF2; [3]): > 1000 nM | Kd (ATF2; [4]): > 1000 nM | Kd (ATF2; [5]): > 1000 nM | Kd (ATF2; [6]): > 5000 nM | Kd (ATF2; [7]): > 5000 nM | Kd (ATF2; [8]): > 1000 nM | Kd (ATF5; [1]): 35.5 nM | Kd (ATF5; [9]): > 5000 nM | Kd (ATF5; [10]): > 5000 nM | Kd (ATF5; [4]): > 5000 nM | Kd (ATF5; [11]): > 5000 nM | Kd (ATF5; [12]): > 5000 nM | Kd (ATF5; 23°C, N-terminal rhodamine design, repeat 1): > 1000 nM | Kd (ATF5; [6]): > 1000 nM | Kd (ATF5; [13]): > 5000 nM | Kd (ATF5; [7]): > 5000 nM | Kd (ATF5; [14]): > 5000 nM | Kd (ATF5; [15]): > 5000 nM | Kd (ATF5; [8]): > 1000 nM | Kd (ATF5; 37°C, N-terminal rhodamine design, repeat 1): > 1000 nM | Kd (ATF5; 37°C, N-terminal rhodamine design, repeat 2): > 1000 nM | Kd (ATF5; 37°C, N-terminal rhodamine design, repeat 3): > 1000 nM | Kd (BATF2; [1]): > 1000 nM | Kd (BATF2; [9]): > 1000 nM | Kd (BATF2; [2]): > 1000 nM | Kd (BATF2; [3]): > 1000 nM | Kd (BATF2; [10]): > 1000 nM | Kd (BATF2; [5]): > 1000 nM | Kd (BATF2; [6]): > 1000 nM | Kd (BATF2; [13]): > 1000 nM | Kd (BATF2; [8]): > 1000 nM | Kd (CREB3; 4°C, C-terminal rhodamine design): > 1000 nM | Kd (CREB3; 4°C, N-terminal rhodamine design): > 1000 nM | Kd (CREB3; 23°C, C-terminal rhodamine design): > 1000 nM | Kd (CREB3; 23°C, N-terminal rhodamine design): > 1000 nM | Kd (CREB3; 37°C, C-terminal rhodamine design): > 5000 nM | Kd (CREB3; 37°C, N-terminal rhodamine design): > 1000 nM | Kd (CREB3L3; [1]): > 1000 nM | Kd (CREB3L3; [9]): > 5000 nM | Kd (CREB3L3; [2]): > 1000 nM | Kd (CREB3L3; [3]): > 1000 nM | Kd (CREB3L3; [10]): > 1000 nM | Kd (CREB3L3; [5]): > 1000 nM | Kd (CREB3L3; [6]): > 1000 nM | Kd (CREB3L3; [13]): > 1000 nM | Kd (CREB3L3; [8]): > 1000 nM | Kd (CREBZF; [9]): > 5000 nM | Kd (CREBZF; [2]): < 200 nM | Kd (CREBZF; [3]): > 1000 nM | Kd (CREBZF; [10]): > 5000 nM | Kd (CREBZF; [5]): > 5000 nM | Kd (CREBZF; [6]): > 1000 nM | Kd (CREBZF; [13]): > 1000 nM | Kd (CREBZF; [8]): > 1000 nM | Kd (DBP; [9]): > 5000 nM | Kd (DBP; [2]): > 1000 nM | Kd (DBP; [3]): > 1000 nM | Kd (DBP; [10]): > 1000 nM | Kd (DBP; [5]): > 1000 nM | Kd (DBP; [6]): > 1000 nM | Kd (DBP; [13]): > 1000 nM | Kd (DBP; [8]): > 1000 nM | Kd (HLF; [1]): > 1000 nM | Kd (HLF; [9]): > 5000 nM | Kd (HLF; [2]): > 1000 nM | Kd (HLF; [3]): > 1000 nM | Kd (HLF; [10]): > 1000 nM | Kd (HLF; [5]): > 1000 nM | Kd (HLF; [6]): > 1000 nM | Kd (HLF; [13]): > 5000 nM | Kd (HLF; [8]): > 1000 nM | Kd (NFE2L2; [1]): > 5000 nM | Kd (NFE2L2; [2]): 47.9 nM | Kd (NFE2L2; [3]): > 1000 nM | Kd (NFE2L2; [10]): > 5000 nM | Kd (NFE2L2; [4]): > 5000 nM | Kd (NFE2L2; [11]): > 5000 nM | Kd (NFE2L2; [12]): > 5000 nM | Kd (NFE2L2; [5]): > 1000 nM | Kd (NFE2L2; [6]): > 1000 nM | Kd (NFE2L2; [7]): > 1000 nM | Kd (NFE2L2; [14]): > 1000 nM | Kd (NFE2L2; [15]): > 5000 nM | Kd (NFE2L2; [8]): > 1000 nM | Kd (NFIL3; [1]): 42.4 nM | Kd (NFIL3; [9]): 22.8 nM | Kd (NFIL3; [2]): > 1000 nM | Kd (NFIL3; [3]): > 1000 nM | Kd (NFIL3; [4]): > 5000 nM | Kd (NFIL3; [11]): > 5000 nM | Kd (NFIL3; [5]): > 1000 nM | Kd (NFIL3; [6]): > 1000 nM | Kd (NFIL3; [13]): > 5000 nM | Kd (NFIL3; [7]): > 5000 nM | Kd (NFIL3; [14]): > 5000 nM | Kd (NFIL3; [15]): > 5000 nM | Kd (NFIL3; [8]): > 1000 nM
Sequence: NQIKTLRTRLSKLRKDNLQLEKDIANLERKAKDLRAEKEQLEYEL [ATF4-d1]
